Data on five compounds can be found in US10981932B2, “Macrocyclic indole derivatives” (Bayer Aktiengesellschaft, priority 2016, dated 2021).

Broadly, the EC50 is the concentration at which the effect is half-maximal. A high value points to lower potency in that assay.

Where “and” joins values, the source holds several entries; their conditions need not be identical. Equal values may be shown once. Where a name gives a salt, the structure may show the parent alone. Read-outs that look alike come from different tables or passages of the source. A value given as a limit tells only on which side of the number the result lay.

One series has as its target MCL-1 (Homo sapiens, UniProt Q07820). The series can be described thus: Protein-protein interaction assay MCL-1/Noxa BH3 peptide (MCL-1 assay), TR-FRET. Particulars: MBP-MCL-1 / Noxa BH3-derived peptide, median. It is filed as binding. An outline of the steps:
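MBP-MCL-1 (1 nM final) was preincubated 10 min at 22 °C with compounds (11 concentrations, 0.1 nM–20 μM, duplicates) in Tris pH 7 buffer with NaCl, KF, Tween-20, DTT and BGG. After 1 h at 22 °C in the dark plus overnight at 4 °C, anti-MBP Eu-cryptate/streptavidin-XL665 TR-FRET was read; IC50 came from a 4-parameter fit.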
(TR-FRET usually uses a lanthanide donor and a delayed reading to cut background.)

Series [1] has as its system SUDHL5. The series can be described thus: Induction of caspase-3/7 activity (Caspase-Glo 3/7), SUDHL5. It is filed as cell-based. Particulars: caspase-3/7 induction, SUDHL5 cells, 3 h treatment, median. An outline of the steps: (§1)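 Caspase-Glo 3/7 luminescence measured after 3 h compound exposure at 37 °C in SUDHL10 and SUDHL5 cells. EC50 values come from background-corrected signals, with curve bottom set to 1 and plateau set to maximal induction by the reference compound.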

In series [2] the test system is SUDHL10. The series can be described thus: Induction of caspase-3/7 activity (Caspase-Glo 3/7), SUDHL10. In kind it is cell-based. Particulars: caspase-3/7 induction, SUDHL10 cells, 3 h treatment, median. Put shortly: as §1
Series [3] concerns SUDHL5. The series can be described thus: Anti-proliferative effect (CellTiter-Glo, 72 h), SUDHL5. It is filed as cell-based. Particulars: SUDHL5 cells, antiproliferation, 72 h incubation, median, read-out: Antiproli SUDHL5 [M] (median). An outline of the steps:
(§2)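 CellTiter-Glo luminescence readout of viability, taken on a time-zero plate at day 0 and on treated plates after 72 h incubation at 37 °C in a humidified incubator. Reagent incubation 10 min before reading.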
(ATP-based viability assays read luminescence as a measure of living cells.)

The test system of series [4] is SUDHL10. The series can be described thus: Anti-proliferative effect (CellTiter-Glo, 72 h), SUDHL10. It is filed as cell-based. Particulars: SUDHL10 cells, antiproliferation, 72 h incubation, median, read-out: Antiproli SUDHL10 [M] (median). An outline of the steps:
as §2

The subject of another series is A2780. The series can be described thus: Anti-proliferative effect (CellTiter-Glo, 72 h), A2780. In kind it is cell-based. Particulars: A2780 cells, median, read-out: IC50 antiproliferation assay A2780 [M] (median). An outline of the steps: as §2
For series [5], the system named is SUDHL5. The series can be described thus: Induction of cytotoxicity (CellTiter-Glo, 5 h), SUDHL5.
Series [6] has as its system SUDHL10. The series can be described thus: Induction of cytotoxicity (CellTiter-Glo, 5 h), SUDHL10.
[7] abbreviates: read-out: Cytotox SUDHL5 [M] (median), SUDHL5 cells, cytotoxicity induction, CellTiter-Glo, 5 h incubation, median.
Where [8] appears, read: read-out: Cytotox SUDHL10 [M] (median), SUDHL10 cells, cytotoxicity induction, CellTiter-Glo, 5 h incubation, median.
Setting [9] is: Homo sapiens, SU-DHL-5, 5 h, read-out: Cytotox SUDHL5 [M] (median), SUDHL5 cells, cytotoxicity induction, CellTiter-Glo, 5 h incubation, median.
[10] abbreviates: Homo sapiens, SU-DHL10, 5 h, read-out: Cytotox SUDHL10 [M] (median), SUDHL10 cells, cytotoxicity induction, CellTiter-Glo, 5 h incubation, median.

Sequence of MCL-1 (Q07820 whole entry): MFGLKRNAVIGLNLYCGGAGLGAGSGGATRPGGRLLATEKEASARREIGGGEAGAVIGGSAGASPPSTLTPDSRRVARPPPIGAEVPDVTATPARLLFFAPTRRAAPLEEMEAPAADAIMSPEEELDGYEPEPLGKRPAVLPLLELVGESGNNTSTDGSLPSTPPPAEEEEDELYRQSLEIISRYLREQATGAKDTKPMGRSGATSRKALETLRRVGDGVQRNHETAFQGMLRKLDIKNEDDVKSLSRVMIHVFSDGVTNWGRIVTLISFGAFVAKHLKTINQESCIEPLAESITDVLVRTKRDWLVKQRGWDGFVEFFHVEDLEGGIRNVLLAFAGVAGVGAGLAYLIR

For the compound `COCCn1nc(C2CC2)c2c1COCCCCn1c(C(=O)O)c(CCCOc3cccc4ccccc34)c3cccc-2c31` (single isomer, unassigned; enantiomer 1) [Example 103, 3-cyclopropyl-1-(2-methoxyethyl)-7-[3-(naphthalen-1-yloxy)propyl]-1,10,11,12,13,15-hexahydropyrazolo[4′,3′:9,10][1,6]oxazacycloundecino[8,7,6-hi]indole-8-carboxylic acid-N-ethylethanamine Salt (Enantiomer 1)], the IC50 against MCL-1 is 0.00298 µM; in the series on SUDHL5 [3], 4.28e-06 M; with SUDHL10 [4] (Homo sapiens, SU-DHL10, 72 h), 7.52e-06 M; in the series with A2780, 2.72e-05 M; in the series with A2780 (Homo sapiens, A2780, 72 h) it was greater than 3.3e-05 M; in the series on SUDHL5 [5] (setting [7]), 3.55e-06 M. Also, in the series on SUDHL10 [6] (setting [8]), the IC50 is 8.83e-06 M. Besides, the EC50 is 2.66 µM in the series with SUDHL5 [1] and 8.71 µM in the series on SUDHL10 [2].
Consider `CCc1c2c(nn1C)CN(C)CCCn1c(C(=O)O)c(CCCOc3cccc4ccccc34)c3cccc-2c31` (single isomer, unassigned; enantiomer 1) [Example 142, 11-Ethyl-7,10-dimethyl-1-[3-(1-naphthyloxy)propyl]-4,5,6,7,8,10-hexahydropyrazolo[3′,4′:7,8][1,5]diazecino[9,10,1-hi]indole-2-carboxylic acid-N-ethylethanamine Salt (Enantiomer 1)], for which the IC50 was determined as 0.00523 µM against MCL-1; 8.25e-06 M in the series with SUDHL5 [3] (Homo sapiens, SU-DHL-5, 72 h); 1.89e-05 M in the series on SUDHL10 [4] (Homo sapiens, SU-DHL10, 72 h); 2.25e-05 M in the series with A2780 (Homo sapiens, A2780, 72 h); 6.07e-06 M in the series on SUDHL5 [5] (setting [7]); 1.34e-05 M with SUDHL10 [6] (setting [8]). The figures for the EC50 in the series with SUDHL5 [1] and with SUDHL10 [2] were 4.73 µM and 12.5 µM, respectively.
`Cn1nc(CCN2CCOCC2)c2c1COCCCCn1c(C(=O)O)c(CCCOc3cccc4ccccc34)c3cccc-2c31` (single isomer, unassigned; enantiomer 1) [Example 151, 1-methyl-3-[2-(morpholin-4-yl)ethyl]-7-[3-(naphthalen-1-yloxy)propyl]-1,10,11,12,13,15-hexahydropyrazolo[4′,3′:9,10][1,6]oxazacycloundecino[8,7,6-hi]indole-8-carboxylic acid-N-ethylethanamine Salt (Enantiomer 1)]: the IC50 against MCL-1 was 0.0133 µM; in the series with SUDHL5 [3], greater than 3.3e-06 M; in the series on SUDHL10 [4] (Homo sapiens, SU-DHL10, 72 h), 2.01e-05 M; in the series on A2780 (Homo sapiens, A2780, 72 h), greater than 3.3e-05 M; in the series on SUDHL5 [5] (setting [9]), 1.91e-05 M; with SUDHL10 [6] (setting [10]) it was greater than 3.3e-05 M. Also, the concentration for a half-maximal effect (EC50) in the series on SUDHL5 [1] (Homo sapiens, SU-DHL-5, 3 h) was 27.5 µM; in the series with SUDHL10 [2] (Homo sapiens, SU-DHL10, 3 h) it was greater than 33 µM.
As for `COCc1nn(C)c2c1-c1cccc3c(CCCOc4cccc5ccccc45)c(C(=O)O)n(c13)CCCCCOC2` (single isomer, unassigned; enantiomer 1) [Example 178, 3-(methoxymethyl)-1-methyl-7-[3-(naphthalen-1-yloxy)propyl]-1,11,12,13,14,16-hexahydro-1 OH-pyrazolo[3′,4′:3,4][1,7]oxazacyclododecino[5,6,7-h]indole-8-carboxylic acid-N-ethylethanamine Salt (Enantiomer 1)], the IC50 is 0.0181 µM against MCL-1; 9.37e-06 M with SUDHL5 [3] (Homo sapiens, SU-DHL-5, 72 h); > 3.3e-05 M and 2.21e-05 M in the series with SUDHL10 [4]; greater than 3.3e-05 M in the series on A2780 (Homo sapiens, A2780, 72 h); 1.3e-05 M in the series on SUDHL5 [5] (setting [9]); greater than 3.3e-05 M with SUDHL10 [6] (setting [10]). Further, the EC50 was 12.8 µM with SUDHL5 [1] (Homo sapiens, SU-DHL-5, 3 h); greater than 33 µM in the series on SUDHL10 [2] (Homo sapiens, SU-DHL10, 3 h); 30 µM with SUDHL10 [2].
For `CCCc1nn(C)c2c1-c1c(C)ccc3c(CCCOc4cccc5ccccc45)c(C(=O)O)n(c13)CCCCOC2` (single isomer, unassigned; enantiomer 1) [Example 188, 1,4-dimethyl-7-[3-(naphthalen-1-yloxy)propyl]-3-propyl-1,10,11,12,13,15-hexahydropyrazolo[4′,3′:9,10][1,6]oxazacycloundecino[8,7,6-hi]indole-8-carboxylic acid-N-ethylethanamine Salt (Enantiomer 1)], the IC50 was 0.00146 µM against MCL-1; 3.39e-06 M in the series on SUDHL5 [3]; 9.83e-06 M with SUDHL10 [4]; 2.42e-05 M with A2780 (Homo sapiens, A2780, 72 h); 2.95e-06 M with SUDHL5 [5] (setting [7]); 6.61e-06 M in the series on SUDHL10 [6] (setting [8]). The EC50 turned out to be 2.82 µM with SUDHL5 [1] and 7.76 µM in the series with SUDHL10 [2].
